Laboratory results published in patent US12616203B2, “Use of 3-isoxazolidinones compounds as selective herbicides” (FMC Corporation, priority 2014, dated 2026).
“Also recorded” adds a separate entry of the source.

Tests used:
weeds; Wheat and canola [1] = assay: Ex35 PRE greenhouse; type: in vivo; details: rate in the words
From the text: Crops screened were wheat and canola.

Littleseed canarygrass = assay: Ex34 PRE 2,4-DC + napropamide, % control, Colby; type: in vivo, Phalaris minor; details: 28 DAT
From the text: (§1) Thereafter flats were watered and fertilized routinely.

Italian ryegrass (IR) = assay: Ex2 PRE greenhouse, % control; type: in vivo, Lolium perenne. multiflorum; details: 28 DAT, g ai/ha by row: r12-40 2,4-DC 31.25/62.5/125/250/375 (3 rows each) + metazachlor 250/500/750 (cycling)
Experimental: Test compositions containing 2,4 DC Example 1B and metazachlor (Butisan® S, 43.1% active ingredient, BASF) and mixtures of 2-(2,4-dichlorophenyl)methyl-4,4-dimethyl-3-isoxazolidinone and metazachlor, were diluted with water to provide the appropriate test rate concentrations.
The test crops were wheat and canola (Brassica napus), the test weeds were Italian ryegrass (IR) (Lolium perenne. multiflorum), annual bluegrass (AB) (Poa annua), common lambsquarters (CL) (Chenopodium album), littleseed canarygrass (LC) (Phalaris minor), common chickweed (CC) (Stellaria media), and corn poppy (CP) (Papaver rhoeas).
For pre-emergence testing, four disposable fiber flats (6″ by 10″) for each rate of application of each herbicide solution were filled with top soil, to which seeds of each species were planted in furrows made by a template pressed on the top of the soil. The furrows were covered with soil after planting the seed and were watered well before application of the test compounds.
Fiber flats designated for treatment were placed in a spray chamber having a static platform and a movable sprayer and height of the spray nozzle was 10.5 inches above the soil level. Once the sprayer was calibrated using water for spray volume of 30 gallons per acre, flats were sprayed with sprayer at a speed to receive a coverage equivalent of 30 gallons per acre. The application rates are those shown in Table 1 below for the individual herbicidal solutions and the herbicide compositions of the present invention. The pre-emergence flats were immediately placed in the greenhouse and watered lightly after treatment. Thereafter they were regularly watered and fertilized for the duration of the test.
The control of weeds was evaluated in each experimental test at 21 days after treatment (DAT) for corn poppy and wheat and 28 DAT for all other species. The results, shown as an average of the replications were compared with results observed in untreated control flats in the same tests.
Percent control was determined by a method similar to the 0 to 100 rating system disclosed in “Research Methods in Weed Science,” 2nd ed., B. Truelove, Ed.; Southern Weed Science Society; Auburn University, Auburn, Ala., 1977.

weeds; Wheat and Barley = assay: Ex41 POST greenhouse; type: in vivo; details: rate in the words
Experimental: Treatments were applied to wheat and barley crops.
Nonionic surfactant was added at 0.5% v/v in all treatments. Treatments were applied to wheat (5.5″), barley (5″), wild oat (5.5″), common chickweed (2″), wild buckwheat (3″), and common lambsquarters (2″). All plant species were direct seeded into 3″ plastic pots using metro-mix as growth media and pots were watered well before application and watered 24 h after application. Plants were watered and fertilized routinely after treatment application. Each treatment was replicated four times.

Velvetleaf = assay: Ex37 PRE 2,4-DC + atrazine, % control 28 DAT, Colby; type: in vivo, Abutilon theophrasti
From the text: S-metolachlor (DUAL II MAGNUM®, 82.4%) at 525 g ai/h plus atrazine at 560 g ai/h was included as a standard for comparison. […] Thereafter flats were watered and fertilized routinely.

weeds; barley and wheat = assay: Ex40 POST greenhouse; type: in vivo; details: rate in the words
Experimental: Treatments were applied to barley and wheat crops.
Non-ionic surfactant (NIS) was added to all treatments at 0.5% v/v. All plant species were direct seeded into 3″ plastic pots using metro-mix as growth media. At treatment common lambsquarters was 1.75″, common chickweed was 2″, wild mustard was 2.25″, wild oat was 5.5″, wild buckwheat was 2-5″, Italian ryegrass was 2-3″, wheat was 5.5″ and barley was 4.5″ in height. Plants were watered well before application and not watered 24 h after application. Plants were watered and fertilized routinely after treatment application. Each treatment was replicated four times. Treated flats were placed in randomized block design in the greenhouse.

weeds; canola = assay: Ex34 PRE greenhouse; type: in vivo; details: rate in the words
From the text: as §1

sedges = assay: Ex26 PRE greenhouse; type: in vivo; details: 28 DAT, weed and rate in the words
From the text: Treatments were applied at the time of planting to yellow nutsedge, purple nutsedge, and benghal dayflower. […] Flats were watered and fertilized routinely after treatment application.

Yellow nutsedge = assay: Ex32 PRE 2,4-DC + pyroxasulfone + sulfentrazone, % control 28 DAT, Colby; type: in vivo, Cyperus esculentus
From the text: (§2) Treatments were applied at the time of planting to Italian ryegrass, green foxtail, littleseed canarygrass, wild oat, quackgrass, dandelion, common chickweed, white clover, yellow nutsedge, redroot pigweed, field bindweed, canola, and wheat. […] Flats were watered and fertilized routinely after treatment application.

weeds; canola, and wheat [2] = assay: Ex39 PRE greenhouse; type: in vivo; details: weed and rate in the words
From the text: as §1

weeds; canola, and wheat [3] = assay: Ex30 PRE greenhouse; type: in vivo
From the text: Treatments were applied before the emergence of Italian ryegrass, wild oat, blackgrass, littleseed canarygrass, common chickweed, common lambsquarters, corn poppy, silky windgrass, redroot pigweed, wild mustard, annual bluegrass, canola, and wheat. […] Flats were watered and fertilized routinely after treatment application.

Quackgrass = assay: Ex32 PRE 2,4-DC + pyroxasulfone + sulfentrazone, % control 28 DAT, Colby; type: in vivo, Elymus repens
From the text: as §2

weeds; Wheat and canola [4] = assay: Ex27 PRE greenhouse; type: in vivo; details: weed and rate in the words
From the text: The weeds tested in this study were Italian ryegrass (Lolium perenne. multiflorum, LOLMU), wild mustard (Sinapis arvensis, SINAR), annual bluegrass (Poa annua POAAN), wild oat (Avena fatua, AVEFA), blackgrass (Alopecurus myosuroides, ALOMY), common lambsquarters (Chenopodium album […] (Phalaris minor, PHAMI), common chickweed (Stellaria media, STEME), corn poppy (Papaver rhoeas PAPRH). The crops tested were Wheat and canola. […] Treatments were applied before the emergence of Italian ryegrass, wild oat, blackgrass, littleseed canarygrass, common chickweed, common lambsquarters, corn poppy, wild mustard, annual bluegrass, canola, and wheat. […] Flats were watered and fertilized routinely after treatment application. […] Wheat and corn poppy were rated at 14 and 21 DAT only.

## CC1(C)CON(Cc2ccc(Cl)cc2Cl)C1=O [2,4-DC, 2-(2,4-dichlorophenyl)methyl-4,4-dimethyl-3-isoxazolidinone]
weeds; Wheat and canola [1]
  weed control / crop safety in words: alone at 50 g ai/ha controlled (≥85% injury) common chickweed, at 100 g controlled blackgrass and wild buckwheat; also recorded: alone was safe on wheat and canola (≤10% injury) when applied at 50 and 100 g
Littleseed canarygrass; 2,4-DC alone 31 g ai/ha
  X: 8%
Littleseed canarygrass; 2,4-DC alone 63 g ai/ha
  X: 12%
Littleseed canarygrass; 2,4-DC alone 125 g ai/ha
  X: 18%
Littleseed canarygrass; 2,4-DC alone 250 g ai/ha
  X: 27%
Littleseed canarygrass; 2,4-DC alone 375 g ai/ha
  X: 53%
Italian ryegrass (IR); r42-46 2,4-DC 31.25/62.5/125/250/375, r47-49 metazachlor 250/500/750, 31.25 g ai/ha
  % Control IR: 57%
Italian ryegrass (IR); r42-46 2,4-DC 31.25/62.5/125/250/375, r47-49 metazachlor 250/500/750, 62.5 g ai/ha
  % Control IR: 68%
Italian ryegrass (IR); r42-46 2,4-DC 31.25/62.5/125/250/375, r47-49 metazachlor 250/500/750, 125 g ai/ha
  % Control IR: 85%
Italian ryegrass (IR); r42-46 2,4-DC 31.25/62.5/125/250/375, r47-49 metazachlor 250/500/750, 250 g ai/ha
  % Control IR: 98%
Italian ryegrass (IR); r42-46 2,4-DC 31.25/62.5/125/250/375, r47-49 metazachlor 250/500/750, 375 g ai/ha
  % Control IR: 99%
weeds; Wheat and Barley
  weed control / crop safety in words: Wheat was safe with 2,4-DC alone up to 170 g ai/ha, barley was not safe with any rate of 2,4-DC alone
Velvetleaf; PRE, 2,4-DC 50 g ai/ha
  X (% control, 2,4-DC alone): 18%
Velvetleaf; PRE, 2,4-DC 100 g ai/ha
  X (% control, 2,4-DC alone): 19%
Velvetleaf; PRE, 2,4-DC 200 g ai/ha
  X (% control, 2,4-DC alone): 90%
weeds; barley and wheat
  weed control / crop safety in words: applied alone was safe at all rates on both wheat and barley
weeds; canola
  weed control / crop safety in words: applied alone at 31.2 g ai/ha controlled common chickweed, at 125 g controlled common lambsquarters and injured canola, at 250 g controlled blackgrass and Italian ryegrass
sedges
  weed control in words: alone did not provide control of sedges at any rate except benghal dayflower at 400 g
Yellow nutsedge; 2,4-DC alone 50 g ai/ha
  X: 0%
Yellow nutsedge; 2,4-DC alone 100 g ai/ha
  X: 0%
Yellow nutsedge; 2,4-DC alone 200 g ai/ha
  X: 17%
weeds; canola, and wheat [2]
  weed control in words: alone at ≥50 g ai/ha controlled (≥85%) Canada thistle, dandelion, or common chickweed
weeds; canola, and wheat [3]; at 100 g
  injury to canola: 11%
weeds; canola, and wheat [3]; at 200 g
  injury to wheat: 11%
weeds; canola, and wheat [3]; weed and rate in the words
  weed control in words: alone gave control of pigweed, corn poppy, and Italian ryegrass at ≥200 g ai/ha, wild oat at 400 g, blackgrass at ≥100 g, and common chickweed at all rates
Quackgrass; 2,4-DC alone 50 g ai/ha
  X: 0%
Quackgrass; 2,4-DC alone 100 g ai/ha
  X: 7%
Quackgrass; 2,4-DC alone 200 g ai/ha
  X: 10%
weeds; Wheat and canola [4]
  weed control in words: provided good control of blackgrass at 375 g; controlled Italian ryegrass at ≥125 g and common chickweed at all rates
